Results reported in patent US10954269B2, “Anti-inflammatory tripeptides” (Dr. August Wolff Gmbh & Co. KG Arzneimittel, priority 2013, dated 2021).
[ ]: non-standard residue; d: D form.

Tested on: human keratinocyte cell line (HaCaT)
Test: Cytokine secretion on protein level in activated human keratinocyte cell line HaCaT (13-plex FACS / Luminex, supernatant)
Type: cell-based
Outline: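 Stimulus: PMA/Ionomycin or IFN-γ, 48 h; cells: HaCaT or human peripheral-blood T-cells; tripeptide treatment; readout: supernatant cytokines via 13-plex FACS or Luminex, 48–72 h post-stimulation.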

[1] = HaCaT stimulated with IFN-γ, 10^−9M
[2] = HaCaT stimulated with IFN-γ, 10^−9M, excluded from the final assessment
[3] = HaCaT stimulated with IFN-γ, substance 10^−9M
[4] = HaCaT stimulated with PBS, 10^−9M
[5] = HaCaT stimulated with PBS, 10^−9M, excluded from the final assessment
[6] = HaCaT stimulated with PBS, substance 10^−9M
[7] = HaCaT stimulated with PMA/Ionomycin, 10^−9M
[8] = HaCaT stimulated with PMA/Ionomycin, 10^−9M, excluded from the final assessment
[9] = HaCaT stimulated with PMA/Ionomycin, substance 10^−9M

Substance “H-Lys-[dP]-Thr-OH [K(D)PT, reference compound]” has an IL-1 cytokine concentration [1] of 257.77 pg/mL, an IL-2 cytokine concentration [1] of 129.65 pg/mL and an IL-4 cytokine concentration [1] of 84.61 pg/mL. It also gave an IL-5 cytokine concentration [1] of 166.92 pg/mL, an IL-6 cytokine concentration [1] of 728.31 pg/mL and an IL-9 cytokine concentration [1] of 83.09 pg/mL. For the same substance, the IL-10 cytokine concentration [1] was 73.19 pg/mL, the IL-13 cytokine concentration [1] was 59.62 pg/mL and the IL-17 cytokine concentration [1] was 664.43 pg/mL. The TNF-α cytokine concentration [1] was 100.07 pg/mL, the IL-12p70 cytokine concentration [2] was 0 pg/mL and the IL-22 cytokine concentration [2] was 0 pg/mL. For the same substance, the IL-1 cytokine concentration [3] was 0 pg/mL, the IL-2 cytokine concentration [3] was 131.59 pg/mL and the IL-4 cytokine concentration [3] was 52.4 pg/mL. The IL-5 cytokine concentration [3] was 0 pg/mL, the IL-6 cytokine concentration [3] was 238.12 pg/mL and the IL-9 cytokine concentration [3] was 0 pg/mL. For the same substance, the IL-10 cytokine concentration [3] was 0 pg/mL, the IL-12 cytokine concentration [3] was 0 pg/mL and the IL-12p70 cytokine concentration [3] was 0 pg/mL. The IL-13 cytokine concentration [3] was 0 pg/mL, the IL-17 cytokine concentration [3] was 112.82 pg/mL and the IL-22 cytokine concentration [3] was 0 pg/mL. The TNF-α cytokine concentration [3] was 50.44 pg/mL, the IFN-γ cytokine concentration [4] was 395.55 pg/mL and the IL-1 cytokine concentration [4] was 228.99 pg/mL. For the same substance, the IL-2 cytokine concentration [4] was 201.9 pg/mL, the IL-4 cytokine concentration [4] was 85.48 pg/mL and the IL-5 cytokine concentration [4] was 201.01 pg/mL. It also gave an IL-6 cytokine concentration [4] of 72.95 pg/mL, an IL-9 cytokine concentration [4] of 132.74 pg/mL and an IL-10 cytokine concentration [4] of 125.52 pg/mL. It also gave an IL-13 cytokine concentration [4] of 60.72 pg/mL, an IL-17 cytokine concentration [4] of 618.22 pg/mL and a TNF-α cytokine concentration [4] of 90.41 pg/mL. It also gave an IL-12p70 cytokine concentration [5] of 0 pg/mL, an IL-22 cytokine concentration [5] of 10982.2 pg/mL and an IFN-γ cytokine concentration [6] of 99.65 pg/mL. It also gave an IL-1 cytokine concentration [6] of 65.11 pg/mL, an IL-2 cytokine concentration [6] of 0 pg/mL and an IL-4 cytokine concentration [6] of 144.86 pg/mL. It also gave an IL-5 cytokine concentration [6] of 0 pg/mL, an IL-6 cytokine concentration [6] of 78.34 pg/mL and an IL-9 cytokine concentration [6] of 5.27 pg/mL. It also gave an IL-10 cytokine concentration [6] of 31.43 pg/mL, an IL-12 cytokine concentration [6] of 0 pg/mL and an IL-12p70 cytokine concentration [6] of 0 pg/mL. The IL-13 cytokine concentration [6] was 0 pg/mL, the IL-17 cytokine concentration [6] was 0 pg/mL and the IL-22 cytokine concentration [6] was 0 pg/mL. For the same substance, the TNF-α cytokine concentration [6] was 9.34 pg/mL, the IFN-γ cytokine concentration [7] was 736.13 pg/mL and the IL-1 cytokine concentration [7] was 212.49 pg/mL. It also gave an IL-2 cytokine concentration [7] of 179.25 pg/mL, an IL-4 cytokine concentration [7] of 70.92 pg/mL and an IL-5 cytokine concentration [7] of 157.36 pg/mL. For the same substance, the IL-6 cytokine concentration [7] was 130.87 pg/mL, the IL-9 cytokine concentration [7] was 147.79 pg/mL and the IL-10 cytokine concentration [7] was 84.32 pg/mL. For the same substance, the IL-13 cytokine concentration [7] was 62.95 pg/mL, the IL-17 cytokine concentration [7] was 487.56 pg/mL and the TNF-α cytokine concentration [7] was 116.88 pg/mL. It also gave an IL-12p70 cytokine concentration [8] of 0 pg/mL, an IL-22 cytokine concentration [8] of 10698.1 pg/mL and an IFN-γ cytokine concentration [9] of 0 pg/mL. The IL-1 cytokine concentration [9] was 0 pg/mL, the IL-2 cytokine concentration [9] was 0 pg/mL and the IL-4 cytokine concentration [9] was 129.6 pg/mL. For the same substance, the IL-5 cytokine concentration [9] was 0 pg/mL, the IL-6 cytokine concentration [9] was 282.85 pg/mL and the IL-9 cytokine concentration [9] was 0 pg/mL. It also gave an IL-10 cytokine concentration [9] of 118.77 pg/mL, an IL-12 cytokine concentration [9] of 0 pg/mL and an IL-12p70 cytokine concentration [9] of 0 pg/mL. The IL-13 cytokine concentration [9] was 0 pg/mL, the IL-17 cytokine concentration [9] was 0 pg/mL and the IL-22 cytokine concentration [9] was 0 pg/mL. The TNF-α cytokine concentration [9] was 0 pg/mL.

Substance “alpha-melanocyte-stimulating hormone [α-MSH, reference compound]” has an IL-1 cytokine concentration [1] of 238.96 pg/mL, an IL-2 cytokine concentration [1] of 119.87 pg/mL and an IL-4 cytokine concentration [1] of 70.08 pg/mL. It also gave an IL-5 cytokine concentration [1] of 184.1 pg/mL, an IL-6 cytokine concentration [1] of 750.84 pg/mL and an IL-9 cytokine concentration [1] of 83.5 pg/mL. For the same substance, the IL-10 cytokine concentration [1] was 82.71 pg/mL, the IL-13 cytokine concentration [1] was 55.34 pg/mL and the IL-17 cytokine concentration [1] was 598.13 pg/mL. The TNF-α cytokine concentration [1] was 67.75 pg/mL, the IL-12p70 cytokine concentration [2] was 0 pg/mL and the IL-22 cytokine concentration [2] was 0 pg/mL. For the same substance, the IL-1 cytokine concentration [3] was 0 pg/mL, the IL-2 cytokine concentration [3] was 0 pg/mL and the IL-4 cytokine concentration [3] was 0 pg/mL. It also gave an IL-5 cytokine concentration [3] of 0 pg/mL, an IL-6 cytokine concentration [3] of 202.37 pg/mL and an IL-9 cytokine concentration [3] of 0 pg/mL. For the same substance, the IL-10 cytokine concentration [3] was 0 pg/mL, the IL-12 cytokine concentration [3] was 0 pg/mL and the IL-12p70 cytokine concentration [3] was 0 pg/mL. It also gave an IL-13 cytokine concentration [3] of 0 pg/mL, an IL-17 cytokine concentration [3] of 95.44 pg/mL and an IL-22 cytokine concentration [3] of 0 pg/mL. For the same substance, the TNF-α cytokine concentration [3] was 45.91 pg/mL, the IFN-γ cytokine concentration [4] was 365.47 pg/mL and the IL-1 cytokine concentration [4] was 271.66 pg/mL. For the same substance, the IL-2 cytokine concentration [4] was 251.78 pg/mL, the IL-4 cytokine concentration [4] was 56.84 pg/mL and the IL-5 cytokine concentration [4] was 150.8 pg/mL. The IL-6 cytokine concentration [4] was 76.75 pg/mL, the IL-9 cytokine concentration [4] was 124.69 pg/mL and the IL-10 cytokine concentration [4] was 107.72 pg/mL. The IL-13 cytokine concentration [4] was 65.47 pg/mL, the IL-17 cytokine concentration [4] was 544.96 pg/mL and the TNF-α cytokine concentration [4] was 97.16 pg/mL. For the same substance, the IL-12p70 cytokine concentration [5] was 0 pg/mL, the IL-22 cytokine concentration [5] was 9847.56 pg/mL and the IFN-γ cytokine concentration [6] was 0 pg/mL. It also gave an IL-1 cytokine concentration [6] of 0 pg/mL, an IL-2 cytokine concentration [6] of 0 pg/mL and an IL-4 cytokine concentration [6] of 118.52 pg/mL. It also gave an IL-5 cytokine concentration [6] of 0 pg/mL, an IL-6 cytokine concentration [6] of 15.22 pg/mL and an IL-9 cytokine concentration [6] of 9.51 pg/mL. For the same substance, the IL-10 cytokine concentration [6] was 39.54 pg/mL, the IL-12 cytokine concentration [6] was 0 pg/mL and the IL-12p70 cytokine concentration [6] was 0 pg/mL. For the same substance, the IL-13 cytokine concentration [6] was 0 pg/mL, the IL-17 cytokine concentration [6] was 0 pg/mL and the IL-22 cytokine concentration [6] was 0 pg/mL. The TNF-α cytokine concentration [6] was 0 pg/mL, the IFN-γ cytokine concentration [7] was 617.26 pg/mL and the IL-1 cytokine concentration [7] was 143.16 pg/mL. The IL-2 cytokine concentration [7] was 98.72 pg/mL, the IL-4 cytokine concentration [7] was 72.6 pg/mL and the IL-5 cytokine concentration [7] was 131.91 pg/mL. It also gave an IL-6 cytokine concentration [7] of 113.54 pg/mL, an IL-9 cytokine concentration [7] of 105.55 pg/mL and an IL-10 cytokine concentration [7] of 111.19 pg/mL. For the same substance, the IL-13 cytokine concentration [7] was 55.34 pg/mL, the IL-17 cytokine concentration [7] was 338.9 pg/mL and the TNF-α cytokine concentration [7] was 103.98 pg/mL. It also gave an IL-12p70 cytokine concentration [8] of 0 pg/mL, an IL-22 cytokine concentration [8] of 9995.76 pg/mL and an IFN-γ cytokine concentration [9] of 0 pg/mL. It also gave an IL-1 cytokine concentration [9] of 0 pg/mL, an IL-2 cytokine concentration [9] of 0 pg/mL and an IL-4 cytokine concentration [9] of 113.12 pg/mL. The IL-5 cytokine concentration [9] was 0 pg/mL, the IL-6 cytokine concentration [9] was 179.03 pg/mL and the IL-9 cytokine concentration [9] was 0 pg/mL. The IL-10 cytokine concentration [9] was 93.2 pg/mL, the IL-12 cytokine concentration [9] was 0 pg/mL and the IL-12p70 cytokine concentration [9] was 0 pg/mL. For the same substance, the IL-13 cytokine concentration [9] was 0 pg/mL, the IL-17 cytokine concentration [9] was 0 pg/mL and the IL-22 cytokine concentration [9] was 0 pg/mL. The TNF-α cytokine concentration [9] was 0 pg/mL.
